Laboratory results: patent US11572377B2, “Nucleotide analogs” (The Regents of the University of California, priority 2015, dated 2023)
Read-outs that look alike come from different tables or passages of the source.

Columns and labels:
HPV-11 = experiment: Low risk HPV assay: HPV origin plasmid replication in HEK 293 cells (qPCR); format: cell-based, human papillomavirus
Experimental: (§1) An origin-containing low risk or high risk HPV plasmid was co-transfected with homologous E1 and E2 protein expression vectors into HEK 293 cells. At 4 h post-transfection, cells were treated with test compound dilutions and then incubated for 48 h. HPV origin plasmid replication was detected after digestion with DpnI and exonuclease III to remove unreplicated transfected plasmids. Remaining replicated DNA was quantified by quantitative real time PCR (qPCR). In a parallel experiment in uninfected cells cytotoxicity was determined by trypan blue exclusion or CELLTITER-GLO® to find the concentration that reduced viable cell number by 50% (CC50). CC50 values were determined by trypan blue exclusion or CELLTITER-GLO® and the selectivity index calculated (Selectivity index=CC50/EC50). The low risk HPV tested was HPV-11, and the high-risk HPV tested was HPV-16 and HPV-18.

[1] = Cytotoxicity assay in HEK-293 cells (CELLTITER-GLO); format: cell-based; conditions: human; for CC50 at 2 d: Table 3, CELLTITER-GLO, 2 d incubation; for CC50 at 48 h: Table B, parallel to HPV-11 antiviral assay
Experimental: as §1
Cytotoxicity Assays in HEK-293 cells. Cytotoxicity assays are performed in concurrently with every antiviral assay using the same cell line and media to ensure the same compound exposure. For the antiviral studies against HPV11 in HEK-293 cells, transfected cells are seeded in duplicate plates. Following a 2 h exposure, compound dilutions are prepared in both the antiviral plate and the duplicate cytotoxicity plate. At 48 h following compound addition, CELLTITE-GLO® (Promega) is added to each well and luminescence is determined on a luminometer. Concentrations of compounds sufficient to reduce cell viability by 50% are calculated from the experimental data (CC50 values).

[2] = Cytotoxicity assay in primary human foreskin fibroblast cells (CELLTITER-GLO); format: cell-based; conditions: Table 3, CELLTITER-GLO, 7 d incubation
Experimental: Cytotoxicity Assays in Primary Human Foreskin Fibroblast Cells. Cytotoxicity was also evaluated in human foreskin fibroblast (HFF) cells as they are a highly sensitive indicator of toxicity in a standard assay with 7 d of compound exposure. A total of 4000 cells/well are seeded in 384-well plates in cell culture media containing 2% fetal bovine serum and antibiotics. Following a 24 h incubation, 5-fold compound dilutions are performed in duplicate wells directly in the plates containing monolayers of HFF cells. At 7 d following compound addition, CELLTITER-GLO® reagent is added to each well and resulting luminescence is measured on a luminometer to assess the number of viable cells in each well. Data are then used to calculate CC50 values.

HPV-16 and HPV-18 = experiment: High risk HPV assay: HPV origin plasmid replication in HEK 293 cells (qPCR); format: cell-based, human papillomavirus; conditions: read-out: EC50 High Risk
Experimental: as §1

[3] = Human papillomavirus, HEK293, Antiviral activity against HPV-11 in HEK-293 cells, read-out: EC50
[4] = Human papillomavirus, HEK293, Antiviral activity against HPV-11 in HEK-293 cells, read-out: EC90
[5] = primary human foreskin fibroblast (HFF) cells
[6] = low risk HPV (HPV-11), HEK 293 cells, 48 h incubation, read-out: EC50 Low Risk

SMILES | EC50 (HPV-11; [3]) [µM] | EC90 (HPV-11; [4]) [µM] | CC50 at 2 d ([1]; HEK-293 cells) [µM] | CC50 at 48 h ([1]; HEK-293 cells) [µM] | CC50 at 7 d [2, 5] [µM] | other results
CCCCCCCCCCCCCCCCCCOCCOP(=O)(COCCn1cnc2c(=O)[nH]c(N)nc21)OCc1ccc(OC)c(Cl)c1 (stereo not drawn) [ODE-(3-Cl-4-OMe-Bn)-PMEG] | 0.68 ± 0.62 | 1.34 ± 0.78 | 8.87 ± 1.2 | 8.31 ± 1.83 | 2.27 ± 0.51 | –
Nc1ccn(C[C@@H](CO)OCP(=O)(O)O)c(=O)n1 [Cidofovir, cidofovir, reference compound] | 41.7 ± 12 | > 300 | > 300 | > 300 | > 300 | –
CCCCCCCCCCCCCCCCCCOCCOP(=O)(COCCn1cnc2c(=O)[nH]c(N)nc21)OCc1ccc(C)cc1 (stereo not drawn) [ODE-(4-Me-Bn)-PMEG] | 0.93 ± 0.91 | 7 ± 3.45 | 32 ± 8.14 | 23.8 ± 19.5 | 6.02 ± 3.79 | –
CCCCCCCCCCCCCCCCCCOCC(COP(=O)(O)COCCn1cnc2c(=O)[nH]c(N)nc21)OCc1ccccc1 (stereo not drawn) [ODBG-PMEG, 1-O-Octadecyl-2-O-benzyl-sn-glyceryl PMEG] | – | – | – | – | – | EC50 (HPV-11; Human papillomavirus, HEK293, low risk HPV (HPV-11), HEK 293 cells, 48 h incubation, read-out: EC50 Low Risk): 0.3 to 3.09 µM; EC50 (HPV-16 and HPV-18; Human papillomavirus, HEK293, 48 h): 0.3 to 3.09 µM
CCCCCCCCCCCCCCCCCCOCCOP(=O)(O)COCCn1cnc2c(=O)[nH]c(N)nc21 [ODE-PMEG, Octadecyloxyethyl-Phosphonomethoxyethylguanine, reference compound] | – | – | – | – | – | EC50 (HPV-11; [6]): < 0.3 µM; EC50 (HPV-16 and HPV-18; high risk HPV (HPV-16 and HPV-18), HEK 293 cells, 48 h incubation): < 0.3 µM
CCCCCCCCCCCCCCCCCCOCCOP(=O)(COCCn1cnc2c(=O)[nH]c(N)nc21)OCc1cccc(F)c1 (stereo not drawn) [ODE-(3-F-Bn)-PMEG] | 0.26 | 1.59 ± 0.57 | 2.16 ± 0.36 | 1.74 ± 0.03 | 6.88 ± 4.92 | –
CCOC(=O)[C@H](C)NP(=O)(COCCn1cnc2c(=O)[nH]c(N)nc21)N[C@@H](C)C(=O)OCC [PMEG bisamidate, 9-[2-(bis-(ethyloxy-L-alaninyl)-phosphonomethoxy)ethyl]guanine] | 5.04 ± 7.01 | > 100 | > 100 | > 100 | > 100 | –
Nc1nc2c(ncn2CCOCP(=O)(O)O)c(=O)[nH]1 [PMEG, 9-(2-phosphonylmethoxyethyl)guanine, reference compound] | – | – | – | – | – | EC50 (HPV-11; [6]): 3 to 30 µM
CCCCCCCCCCCCCCCCCCOCCOP(=O)(COCCn1cnc2c(=O)[nH]c(N)nc21)OCc1cccc(Cl)c1 (stereo not drawn) [ODE-(3-Cl-Bn)-PMEG] | 0.22 ± 0.19 | > 0.4 | 1 ± 0.16 | 1.11 ± 0.27 | 4.65 ± 1.73 | –
CCOC(=O)[C@H](C)NP(=O)(COCCn1cnc2c(=O)[nH]c(N)nc21)Oc1ccccc1 (stereo partly drawn) [PMEG phenoxy amidate] | – | – | – | > 100 | – | EC50 (HPV-11; Human papillomavirus, HEK293): 7.56 ± 0.63 µM; EC90 (HPV-11; Human papillomavirus, HEK293): > 100 µM; CC50 at 2 d [1]: > 100 µM; CC50 at 7 d ([2]; read-out: CC50 HFF (7 d incubation)): 70.9 ± 4.07 µM
CCCCCCCCCCCCCCCCCCOCCOP(=O)(COCCn1cnc2c(=O)[nH]c(N)nc21)OCc1ccc(OC)c(F)c1 (stereo not drawn) [ODE-(3-F-4-OMe-Bn)-PMEG] | 0.18 ± 0.04 | 0.99 ± 0.13 | 13.1 ± 5.17 | 14.2 ± 9.48 | 1.72 ± 0.66 | –
